From ChEMBL document CHEMBL4483862, “Open-source discovery of chemical leads for next-generation chemoprotective antimalarials” (2018)

Test system: Plasmodium berghei
Test: Luciferase/luciferin-expressing antifolate-resistant parasites were used to infect a culture of HepG2 cells that were pre-incubated with compounds. Infected hepatocytes emit light due to the luciferase reaction. Assay results are presented as the percent inhibition of light emission compared to control. […]
Type: functional
Details: sporozoite; for IC90: read-out: LUCIFERASE INFECTION ASSAY - IC90
[1] = read-out: LUCIFERASE INFECTION ASSAY - IC50

| Structure (SMILES) | IC90 | other results |
| --- | --- | --- |
| COc1cc(Cl)c(C)cc1-n1c(SCc2nnc(-c3cccs3)o2)nc2ccccc2c1=O | > 10 µM | IC50 (FFLUC_HILL_SLOPE 9.81, FFLUC_R_SQUARED 0.743, PBLUC_HILL_SLOPE 8.4, PBLUC_R_SQUARED 0.579, read-out: LUCIFERASE INFECTION ASSAY - IC50): 8.6 µM |
| CCCCN=C1NN=C(C23CC4CC(CC(C4)C2)C3)C(C)S1 (stereo not drawn) | 8.93 µM | IC50 (PBLUC_HILL_SLOPE 3.27, PBLUC_R_SQUARED 0.411, read-out: LUCIFERASE INFECTION ASSAY - IC50): 4.56 µM |
| Nc1nc2ccccc2n1Cc1ccc(Cl)cc1 | 5.46 µM | IC50 (HEPG2TOX_HILL_SLOPE 1, HEPG2TOX_R_SQUARED 0.963, PBLUC_HILL_SLOPE 11.6, PBLUC_R_SQUARED 0.65, read-out: LUCIFERASE INFECTION ASSAY - IC50): 4.52 µM |
| Cc1ccc(NC2=CC(=O)CC(c3ccco3)C2)c(N)c1 (stereo not drawn) | 6.68 µM | IC50 (HEPG2TOX_HILL_SLOPE 7.93, HEPG2TOX_R_SQUARED 0.791, PBLUC_HILL_SLOPE 1.82, PBLUC_R_SQUARED 0.701, read-out: LUCIFERASE INFECTION ASSAY - IC50): 2 µM |
| CN(C)c1cc(-c2cc(Cl)sc2Cl)oc(=O)c1Cl | > 10.2 µM | IC50 [1]: > 10.2 µM |
| Cc1cc(C(=O)N/N=C/c2c(-c3ccccc3)nc3ccccn23)c(C)o1 | > 10 µM | IC50 (PBLUC_HILL_SLOPE 2.6, PBLUC_R_SQUARED 0.44, read-out: LUCIFERASE INFECTION ASSAY - IC50): 6.44 µM |
| COc1ccc(-c2c(C)nn3c(=O)cc(CSc4ccc(C)cc4)[nH]c23)cc1 | 3.91 µM | IC50 (HEPG2TOX_HILL_SLOPE 2.74, HEPG2TOX_R_SQUARED 0.727, PBLUC_HILL_SLOPE 9.33, PBLUC_R_SQUARED 0.653, read-out: LUCIFERASE INFECTION ASSAY - IC50): 3.09 µM |
| Cc1ccc(CCC2CCN(C(=O)c3ccc(NS(=O)(=O)c4cccs4)cc3O)CC2)cc1 | > 10 µM | IC50 (FFLUC_HILL_SLOPE 12, FFLUC_R_SQUARED 0.0293, HEPG2TOX_HILL_SLOPE 12.4, HEPG2TOX_R_SQUARED 0.101, read-out: LUCIFERASE INFECTION ASSAY - IC50): > 10 µM |
| Cc1ccc(NN2C(=O)C=C(c3ccc(Cl)cc3)C2=O)cc1 | > 10.6 µM | IC50 [1]: > 10.6 µM |
| COc1cccc(CC(=O)Nc2ccc(N3CCNC(=O)C3)c(Cl)c2)c1 | > 10 µM | IC50 [1]: > 10 µM |
| C=CCn1c(COc2ccc(C(C)(C)C)cc2)nnc1SCC(=O)N(C)C1CCCCC1 | > 10 µM | IC50 (HEPG2TOX_HILL_SLOPE 8.72, HEPG2TOX_R_SQUARED 0.783, PBLUC_HILL_SLOPE 29.5, PBLUC_R_SQUARED 0.113, read-out: LUCIFERASE INFECTION ASSAY - IC50): 9.61 µM |
| c1ccc(-c2nn(-c3ccccc3)cc2CSc2nncs2)cc1 | > 10 µM | IC50 (PBLUC_HILL_SLOPE 1.24, PBLUC_R_SQUARED 0.639, read-out: LUCIFERASE INFECTION ASSAY - IC50): 5.72 µM |
| Cc1cc(C(=O)C(C)OC(=O)c2ccc(S(C)(=O)=O)c([N+](=O)[O-])c2)c(C)n1-c1ccc(Cl)cc1 (stereo not drawn) | > 10 µM | IC50 [1]: > 10 µM |
| O=C(Nc1cc(C(F)(F)F)cc(C(F)(F)F)c1)Nc1cnn(-c2ccc([N+](=O)[O-])cc2)c1C(F)(F)F | 3.21 µM | IC50 (PBLUC_HILL_SLOPE 8.84, PBLUC_R_SQUARED 0.29, read-out: LUCIFERASE INFECTION ASSAY - IC50): 2.5 µM |
| CC(=O)N1CCc2cc(NC(=O)Cn3c(COc4ccc5ccccc5c4)nc4ccccc43)ccc21 | > 10 µM | IC50 [1]: > 10 µM |
| Cc1ccc(-c2nn(-c3ccccc3)c3[nH]c(-c4ccccc4)cc(=O)c23)cc1 | > 10 µM | IC50 (FFLUC_HILL_SLOPE 0.301, FFLUC_R_SQUARED 0.0383, PBLUC_HILL_SLOPE 15, PBLUC_R_SQUARED 0.1, read-out: LUCIFERASE INFECTION ASSAY - IC50): 9.8 µM |
| FC(F)Oc1ccc(NC(=S)NNC(=S)Nc2ccc(Cl)cc2)cc1 | 4.51 µM | IC50 (HEPG2TOX_HILL_SLOPE 2.66, HEPG2TOX_R_SQUARED 0.926, PBLUC_HILL_SLOPE 1.61, PBLUC_R_SQUARED 0.703, read-out: LUCIFERASE INFECTION ASSAY - IC50): 1.16 µM |
| CCn1c2ccccc2c2cc(NC(=O)C3CCCN(c4ncccn4)C3)ccc21 (stereo not drawn) | 2.28 µM | IC50 (HEPG2TOX_HILL_SLOPE 1.64, HEPG2TOX_R_SQUARED 0.977, PBLUC_HILL_SLOPE 1.41, PBLUC_R_SQUARED 0.865, read-out: LUCIFERASE INFECTION ASSAY - IC50): 0.477 µM |
| Cc1cc(-c2ccc(Cl)cc2)nc2c1c(C)nn2CCO | > 10 µM | IC50 [1]: 4.08 µM |
| Cc1nc(CSc2nc3c(c(-c4ccccc4)c2C#N)C(=O)CC(C)(C)C3)cs1 | > 10 µM | IC50 (HEPG2TOX_HILL_SLOPE 0.218, HEPG2TOX_R_SQUARED 0.218, PBLUC_HILL_SLOPE 7.94, PBLUC_R_SQUARED 0.255, read-out: LUCIFERASE INFECTION ASSAY - IC50): 9.59 µM |

| Structure (SMILES) | IC90 | other results |
| --- | --- | --- |
| COc1cccc(-c2cnc(N)c(-c3ccc(O)c(OC)c3)c2)c1 | 7.28 µM | IC50 (FFLUC_HILL_SLOPE 0.591, FFLUC_R_SQUARED 0.281, PBLUC_HILL_SLOPE 3.73, PBLUC_R_SQUARED 0.478, read-out: LUCIFERASE INFECTION ASSAY - IC50): 4.04 µM |
| COc1cc(C(=O)NNC(=O)c2nn(-c3ccccc3)cc2O)cc(OC)c1OC | > 10 µM | IC50 (HEPG2TOX_HILL_SLOPE 4.57, HEPG2TOX_R_SQUARED 0.844, PBLUC_HILL_SLOPE 7.94, PBLUC_R_SQUARED 0.6, read-out: LUCIFERASE INFECTION ASSAY - IC50): 8.48 µM |
| CSc1sc(C(=O)Nc2ccc(Cl)cc2)c2c1S(=O)(=O)N(C)c1ccccc1-2 | > 7.32 µM | IC50 [1]: > 7.32 µM |
| COc1ccc2c3c(cccc13)C(=O)N(c1nc3ccccc3n1C)C2=O | > 9.23 µM | IC50 [1]: > 9.23 µM |
| CCSC1=N/C(=C\c2cc(C(C)(C)C)c(O)c(C(C)(C)C)c2)C(=O)S1 | > 8.74 µM | IC50 (FFLUC_HILL_SLOPE 2.27, FFLUC_R_SQUARED 0.423, read-out: LUCIFERASE INFECTION ASSAY - IC50): > 8.74 µM |
| Cc1ccc2c(c1)nc1n2CN(CCN2CCOCC2)CN1Cc1ccccc1 | 1.1 µM | IC50 (HEPG2TOX_HILL_SLOPE 1.27, HEPG2TOX_R_SQUARED 0.847, PBLUC_HILL_SLOPE 11.9, PBLUC_R_SQUARED 0.472, read-out: LUCIFERASE INFECTION ASSAY - IC50): 0.911 µM |
| CCc1nn2c(NCc3ccccn3)cc(C)nc2c1-c1ccccc1 | > 9.61 µM | IC50 (PBLUC_HILL_SLOPE 4, PBLUC_R_SQUARED 0.354, read-out: LUCIFERASE INFECTION ASSAY - IC50): 6.15 µM |
| Oc1ccc(/C=C/c2ccc3cccc(O)c3n2)cc1Br | 7.7 µM | IC50 (PBLUC_HILL_SLOPE 43.7, PBLUC_R_SQUARED 0.404, read-out: LUCIFERASE INFECTION ASSAY - IC50): 7.32 µM |
| c1ccc(Oc2cccc(Nc3nccc4nc(-c5ccccc5)[nH]c34)c2)cc1 | 3.51 µM | IC50 (HEPG2TOX_HILL_SLOPE 1.11, HEPG2TOX_R_SQUARED 0.909, PBLUC_HILL_SLOPE 45.8, PBLUC_R_SQUARED 0.688, read-out: LUCIFERASE INFECTION ASSAY - IC50): 3.34 µM |
| COc1cc(C2(O)CS/C(=C(/C#N)C(=O)Nc3ccc(Cl)cc3)N2c2ccccc2)cc(OC)c1OC (stereo not drawn) | > 10 µM | IC50 (HEPG2TOX_HILL_SLOPE 8.02, HEPG2TOX_R_SQUARED 0.929, PBLUC_HILL_SLOPE 8.63, PBLUC_R_SQUARED 0.488, read-out: LUCIFERASE INFECTION ASSAY - IC50): 8.71 µM |
| Cc1cccc(-c2nc3c(c(SCCN4CCCC4)n2)COC(C)(C)C3)c1 | > 8.6 µM | IC50 [1]: > 8.6 µM |
| C=CCN(c1ccccc1)S(=O)(=O)c1ccc(Cl)c(C(=O)Nc2ccc(N(c3ccccc3)C(C)C)cc2)c1 | 8.36 µM | IC50 (FFLUC_HILL_SLOPE 2.09, FFLUC_R_SQUARED 0.761, HEPG2TOX_HILL_SLOPE 2.29, HEPG2TOX_R_SQUARED 0.839, PBLUC_HILL_SLOPE 16.1, PBLUC_R_SQUARED 0.248, read-out: LUCIFERASE INFECTION ASSAY - IC50): 7.29 µM |
| CC(C)(C)NC(=S)Nc1cc(C(F)(F)F)cc(C(F)(F)F)c1 | > 9.58 µM | IC50 (PBLUC_HILL_SLOPE 27.4, PBLUC_R_SQUARED 0.229, read-out: LUCIFERASE INFECTION ASSAY - IC50): 9.58 µM |
| Cc1cnc(C(=O)Nc2cc(C(F)(F)F)ccc2N2CCN(C)CC2)cn1 | > 10 µM | IC50 (PBLUC_HILL_SLOPE 0.31, PBLUC_R_SQUARED 0.853, read-out: LUCIFERASE INFECTION ASSAY - IC50): > 10 µM |
| O=[N+]([O-])c1ccccc1N1CCN(Cc2nc3ccccc3s2)CC1 | > 10 µM | IC50 [1]: > 10 µM |
| O=c1nc(-c2ccccn2)[nH]c2scc(-c3ccccc3)c12 | 2.25 µM | IC50 (HEPG2TOX_HILL_SLOPE 1.76, HEPG2TOX_R_SQUARED 0.7, PBLUC_HILL_SLOPE 112, PBLUC_R_SQUARED 0.058, read-out: LUCIFERASE INFECTION ASSAY - IC50): 2.21 µM |
| COCc1cccc(C(=O)Nc2ccc3c(c2)OC(F)(F)O3)c1 | > 10 µM | IC50 (HEPG2TOX_HILL_SLOPE 7.81, HEPG2TOX_R_SQUARED 0.0219, PBLUC_HILL_SLOPE 15.2, PBLUC_R_SQUARED 0.505, read-out: LUCIFERASE INFECTION ASSAY - IC50): 9.35 µM |
| NS(=O)(=O)c1ccc(CNC(=O)Cn2cnc3ccccc3c2=O)cc1 | > 8.86 µM | IC50 (PBLUC_HILL_SLOPE 11.1, PBLUC_R_SQUARED 0.12, read-out: LUCIFERASE INFECTION ASSAY - IC50): > 8.86 µM |
| Cc1ccc(-c2nc(C(=O)NC3CC3)cc3c2[nH]c2ccccc23)cc1 | 7.38 µM | IC50 (HEPG2TOX_HILL_SLOPE 1.45, HEPG2TOX_R_SQUARED 0.961, PBLUC_HILL_SLOPE 3.11, PBLUC_R_SQUARED 0.33, read-out: LUCIFERASE INFECTION ASSAY - IC50): 3.64 µM |
